Experimental data as given in patent publication US11623919B2, “Heterocyclic P2X7 antagonists” (AXXAM S.P.A., priority 2017, dated 2023).

Columns and labels:
P2X7 receptor [1] = target: T1, P2X7 receptor (Homo sapiens, UniProt Q99572); test: YO-PRO-1 uptake assay; assay type: cell-based; design: expressed in transfected cells; settings: HEK-293 cells stably transfected with P2X7 receptor; Bz-ATP EC80 (30 μM); Low Divalent Cation Assay Buffer
T1 sequence (Q99572 1-595): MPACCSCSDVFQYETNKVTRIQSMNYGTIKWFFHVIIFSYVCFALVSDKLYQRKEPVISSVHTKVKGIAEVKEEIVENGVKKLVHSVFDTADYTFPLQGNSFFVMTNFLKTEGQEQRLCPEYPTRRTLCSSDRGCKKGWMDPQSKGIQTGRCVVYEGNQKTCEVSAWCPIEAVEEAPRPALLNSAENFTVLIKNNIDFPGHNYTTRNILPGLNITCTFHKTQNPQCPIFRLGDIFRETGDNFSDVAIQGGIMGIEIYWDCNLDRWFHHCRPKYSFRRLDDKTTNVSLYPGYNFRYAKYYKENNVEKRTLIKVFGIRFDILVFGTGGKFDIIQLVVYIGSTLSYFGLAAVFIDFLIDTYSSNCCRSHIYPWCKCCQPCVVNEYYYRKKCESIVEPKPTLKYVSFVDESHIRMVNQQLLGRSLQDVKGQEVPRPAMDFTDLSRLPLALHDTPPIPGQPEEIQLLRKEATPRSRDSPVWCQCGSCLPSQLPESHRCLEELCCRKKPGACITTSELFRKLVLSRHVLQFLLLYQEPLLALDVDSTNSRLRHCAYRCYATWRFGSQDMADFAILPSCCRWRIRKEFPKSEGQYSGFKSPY
Text: YO-PRO®-1 is a fluorescent DNA-binding dye with a MW of 374 Da (Molecular Probes®, cat. Y3603). This method is based upon the presumed ability of YO-PRO®-1 to enter through the dilated or “large pore form” of P2X7 receptor and to bind to intracellular DNA whereupon it increases many fold its fluorescence intensity. The dye ha an absorption spectrum compatible with excitation at 488 nm by argon laser sources and its emission wavelength is in the range of 515-575 nm. The aim of this assay was to validate the interaction of antagonists with P2X7 receptor using an alternative readout to Ca2+-sensitive fluorescent dyes.
HEK-293 cells stably transfected with P2X7 receptor were seeded overnight un growth medium at 20,000 cell/well in 384-well plate. 24 hours later, the medium was removed, the cells were washed with Low Divalent Cation Assay Buffer (0.3 mM Ca^2+ and 0 mM Mg^2+) and then pre-loaded with 20 μL/w of 5 μM YO-PRO®-1 dye.
FLIPRTETRA fluorescence measurement immediately started. Then 10 μL/w of test compounds and reference antagonist A438079 at 3×-concentration were injected with the FLIPRTETRA and the kinetic response over a period of five minutes was monitored. A second injection of 10 μL/w of 3× Bz-ATP EC80 (30 μM) was performed with the FLIPRTETRA and the signal of the emitted fluorescence was recorded for additional 60 minutes. All the experiment was carried out with a Low Divalent Cation Assay Buffer (0.3 mM Ca^2+ and 0 mM Mg^2+).
The effect of the test compounds was measured as percent inhibition vs the reference antagonist and IC50 values were calculated accordingly.

P2X7 receptor [2] = target: T1, P2X7 receptor; test: Automated patch-clamp (QPatch16X) P2X7 channel assay; assay type: cell-based; design: expressed in transfected cells; host or cells: HEK-293; settings: HEK-293 cells expressing P2X7 channels; whole-cell, held at -80 mV; 100 microM BzATP; compound 1, 10, 100 and 1000 nM; read-out: Q-Patch (IC50)
Experimental: In order to directly monitor the block of P2X7 channel, an electrophysiological assay was developed and implemented on the QPatch16X automated electrophysiology instrument.
HEK-293 cells expressing the P2X7 channels were cultured in modified EMEM.
72 hours before experiment, 5 million cells were seeded onto T225 flasks. Just before the experiment cells were washed twice, detached from the flask with trypsin-EDTA, re-suspended in the suspension solution and placed on the QPatch 16x.
The compounds (20 mM in a 100% DMSO) stored at −20° C. were prepared the day of the experiment (a first dilution 1:20 in 100% DMSO to prepare a 1 mM stock solution, then a 1 microM solution in external solution+a serial dilution 1:10).
The standard whole-cell voltage clamp experiments were performed at room temperature. From these experiments the multihole technology was used and the data were sampled at 2 KHz.
The intracellular solution contained (mM) 135 CsF, 10 NaCl, 1 EGTA, 10 HEPES, (pH 7.2 with CsOH) whereas the extracellular contained (mM) 145 NaCl, 4 KCl, 0.5 MgCl2, 1 CaCl2, 10 HEPES, 10 Glc (pH 7.4 with NaOH).
After establishment of the seal and the passage in the whole cell configuration, the cells were held at −80 mV. The P2XR7 current was evoked by applying 100 microM of BzATP alone (4 times) and then in the presence increasing concentrations of the compound under investigation (1, 10, 100 and 1000 nM).
The pre-incubation periods 5 to 8 contain increasing concentrations of the compound of interest (1, 10, 100 and 1000 nM), as illustrated in FIGURE (application protocol).
The maximal inward current evoked by BzATP in absence or presence of increasing concentrations of the compounds under investigation was measured and normalized. The potential […] effect was measured as % of control and as IC50 determined fitting the dose-response curves data with the following equation: Y=100/(1+10^((Log IC50−X)*HillSlope))

Compound	IC50 (P2X7 receptor [1])	IC50 (P2X7 receptor [2])
O=c1onc(Cc2c(F)cccc2Cl)n1CC1CCC(F)(F)C1 (racemic) [Example 128, 3-[(2-chloro-6-fluorophenyl)methyl]-4-[(3,3-difluorocyclopentyl)methyl]-4,5-dihydro-1,2,4-oxadiazol-5-one]	115 nM	45.2 nM
O=c1onc(Cc2c(F)cccc2Cl)n1CC1CCC(F)(F)C1 (single isomer, unassigned) [Example 149, 3-(2-chloro-6-fluorobenzyl)-4-[(3,3-difluorocyclopentyl)methyl]-1,2,4-oxadiazol-5(4H)-one]	66 nM	68.6 nM
O=c1onc(Cc2ccc(F)cc2)n1Cc1c(F)cccc1Cl [Example 1, 4-[(2-chloro-6-fluorophenyl)methyl]-3-[(4-fluorophenyl)methyl]-4,5-dihydro-1,2,4-oxadiazol-5-one]	581 nM	247 nM
Cc1cc(F)ccc1Cn1c(Cc2c(F)cccc2Cl)noc1=O [Example 25, 3-[(2-chloro-6-fluorophenyl)methyl]-4-[(4-fluoro-2-methylphenyl)methyl]-4,5-dihydro-1,2,4-oxadiazol-5-one]	115 nM	51.1 nM
O=c1onc(Cc2c(F)cccc2Cl)n1Cc1cccc(F)c1 [Example 26, 3-[(2-chloro-6-fluorophenyl)methyl]-4-[(3-fluorophenyl)methyl]-4,5-dihydro-1,2,4-oxadiazol-5-one]	329 nM	182 nM
CC(c1ccc(F)cc1)n1c(Cc2c(F)cccc2Cl)noc1=O (stereo not shown) [Example 48, 3-[(2-chloro-6-fluorophenyl)methyl]-4-[1-(4-fluorophenyl)ethyl]-4,5-dihydro-1,2,4-oxadiazol-5-one]	340 nM	386 nM
O=c1onc(Cc2c(F)cccc2Cl)n1Cc1ccc(F)cc1 [Example 55, 3-[(2-chloro-6-fluorophenyl)methyl]-4-[(4-fluorophenyl)methyl]-4,5-dihydro-1,2,4-oxadiazol-5-one]	50 nM	33.8 nM
O=c1onc(Cc2c(F)cccc2Cl)n1Cc1ccc(F)cc1Cl [Example 60, 4-[(2-chloro-4-fluorophenyl)methyl]-3-[(2-chloro-6-fluorophenyl)methyl]-4,5-dihydro-1,2,4-oxadiazol-5-one]	366 nM	623 nM
O=c1onc(Cc2c(F)cccc2Cl)n1Cc1ccc(F)cc1F [Example 61, 3-[(2-chloro-6-fluorophenyl)methyl]-4-[(2,4-difluorophenyl)methyl]-4,5-dihydro-1,2,4-oxadiazol-5-one]	293 nM	149 nM
O=c1onc(Cc2c(F)cccc2Cl)n1Cc1ccc(Cl)cc1 [Example 65, 3-[(2-chloro-6-fluorophenyl)methyl]-4-[(4-chlorophenyl)methyl]-4,5-dihydro-1,2,4-oxadiazol-5-one]	318 nM	348 nM
O=c1onc(Cc2c(F)cccc2Cl)n1Cc1ccc(C(F)(F)F)o1 [Example 66, 3-[(2-chloro-6-fluorophenyl)methyl]-4-{[5-(trifluoromethyl)furan-2-yl]methyl}-4,5-dihydro-1,2,4-oxadiazol-5-one]	456 nM	1500 nM
O=c1onc(Cc2cccc(Cl)c2Cl)n1Cc1ccc(F)cc1 [Example 71, 3-[(2,3-dichlorophenyl)methyl]-4-[(4-fluorophenyl)methyl]-4,5-dihydro-1,2,4-oxadiazol-5-one]	461 nM	1160 nM
O=c1onc(Cc2ccc(F)cc2Cl)n1Cc1ccc(F)cc1 [Example 73, 3-[(2-chloro-4-fluorophenyl)methyl]-4-[(4-fluorophenyl)methyl]-4,5-dihydro-1,2,4-oxadiazol-5-one]	670 nM	423 nM
O=c1onc(Cc2ccccc2Cl)n1Cc1ccc(F)cc1 [Example 76, 3-[(2-chlorophenyl)methyl]-4-[(4-fluorophenyl)methyl]-4,5-dihydro-1,2,4-oxadiazol-5-one]	168 nM	401 nM
O=c1onc(Cc2cccc(F)c2)n1Cc1c(F)cccc1Cl [Example 81, 4-[(2-chloro-6-fluorophenyl)methyl]-3-[(3-fluorophenyl)methyl]-4,5-dihydro-1,2,4-oxadiazol-5-one]	619 nM	292 nM
O=c1onc(Cc2c(F)cccc2Cl)n1CC1CCCCC1 [Example 82, 3-[(2-chloro-6-fluorophenyl)methyl]-4-(cyclohexylmethyl)-4,5-dihydro-1,2,4-oxadiazol-5-one]	30 nM	21.4 nM
O=c1onc(Cc2c(F)cccc2Cl)n1CC1CCC(F)(F)CC1 [Example 84, 3-[(2-chloro-6-fluorophenyl)methyl]-4-[(4,4-difluorocyclohexyl)methyl]-4,5-dihydro-1,2,4-oxadiazol-5-one]	3.4 nM	8.43 nM
O=c1onc(Cc2c(F)cccc2Cl)n1CC1CCCC1 [Example 85, 3-[(2-chloro-6-fluorophenyl)methyl]-4-(cyclopentylmethyl)-4,5-dihydro-1,2,4-oxadiazol-5-one]	131 nM	167 nM
CC1(C)CCC(Cn2c(Cc3c(F)cccc3Cl)noc2=O)CC1 [Example 86, 3-[(2-chloro-6-fluorophenyl)methyl]-4-[(4,4-dimethylcyclohexyl)methyl]-4,5-dihydro-1,2,4-oxadiazol-5-one]	111 nM	154 nM
CC1CCCCC1Cn1c(Cc2c(F)cccc2Cl)noc1=O (stereo not shown) [Example 87, 3-[(2-chloro-6-fluorophenyl)methyl]-4-[(2-methylcyclohexyl)methyl]-4,5-dihydro-1,2,4-oxadiazol-5-one]	82 nM	44.1 nM
O=c1onc(Cc2c(F)cccc2Cl)n1CC1CC2CCC1C2 (stereo not shown) [Example 88, 4-{bicyclo[2.2.1]heptan-2-ylmethyl}-3-[(2-chloro-6-fluorophenyl)methyl]-4,5-dihydro-1,2,4-oxadiazol-5-one]	63 nM	34.5 nM
O=c1onc(Cc2c(F)cccc2Cl)n1CC12CCC(CC1)C2 [Example 91, 4-{bicyclo [2.2.1]heptan-1-ylmethyl}-3-[(2-chloro-6-fluorophenyl)methyl]-4,5-dihydro-1,2,4-oxadiazol-5-one]	45 nM	22 nM
O=c1onc(Cc2c(F)cccc2Cl)n1CC1CCCCCC1 [Example 92, 3-[(2-chloro-6-fluorophenyl)methyl]-4-(cycloheptylmethyl)-4,5-dihydro-1,2,4-oxadiazol-5-one]	42 nM	18.1 nM
